{
  "source": "patent US12037340B2",
  "about": "“Pentacyclic derivatives as Zika virus inhibitors” (Gilead Sciences, Inc., priority 2021, dated 2024)",
  "data": [
    {"system": "ZIKV", "experiment": "microbe, parasite or virus in culture", "type": "cell-based, Zika virus", "details": "48 hrs", "units": {"EC50": "nM"}, "values": [
      {"molecule": "COC[C@H]1C[C@@H](c2nc(Cl)c(-c3ccc4c(c3)COc3cc5c(ccc6nc([C@@H]7CC[C@H](C)N7C(=O)[C@@H](NC(=O)OC)C(C)C)[nH]c65)cc3-4)[nH]2)N(C(=O)[C@@H](NC(=O)OC)C(C)(C)C(F)(F)F)C1", "note": "[Compound 20, methyl ((S)-1-((2S,5S)-2-(9-(4-chloro-2-((2S,4S)-4-(methoxymethyl)-1-((S)-4,4,4-trilluoro-2-((methoxycarbonyl)amino)-3,3-dimethylbutanoyl)pyrrolidin-2-yl)-1H-imidazol-5-yl)-1,11-dihydroisochromeno[4′,3′:6,7]naphtho[1,2-d]imidazol-2-yl)-5-methylpyrrolidin-1-yl)-3-methyl-1-oxobutan-2-yl)carbamate]", "EC50": 5.4},
      {"molecule": "COC(=O)N[C@H](C(=O)N1CCC[C@H]1c1nc(Cl)c(-c2ccc3c(c2)COc2cc4c(ccc5nc([C@@H]6CCCN6C(=O)[C@@H](NC(=O)OC)C(C)(C)C(F)(F)F)[nH]c54)cc2-3)[nH]1)C(C)(C)C(F)(F)F", "note": "[Compound 29, methyl ((S)-1-((S)-2-(4-chloro-5-(2-((S)-1-((S)-4,4,4-trifluoro-2-((methoxycarbonyl)amino)-3,3-dimethylbutanoyl)pyrrolidin-2-yl)-1,11-dihydroisochromeno[4′,3′:6,7]naphtho[1,2-d]imidazol-9-yl)-1H-imidazol-2-yl)pyrrolidin-l-yl)-4,4,4-trifluoro-3,3-dimethyl-1-oxobutan-2-yl)carbamate]", "EC50": 11.4}
    ]},
    {"system": "ZIKV", "experiment": "microbe, parasite or virus in culture", "type": "cell-based, Zika virus", "details": "Zika virus, Huh-7; 48 hrs", "units": {"EC50": "nM"}, "values": [
      {"molecule": "CC[C@H](C)[C@H](NC(=O)OC)C(=O)N1C[C@@H](COC)C[C@H]1c1nc(Br)c(-c2ccc3c(c2)COc2cc4c(ccc5nc([C@@H]6CC[C@H](C)N6C(=O)[C@@H](NC(=O)OC)C(C)C)[nH]c54)cc2-3)[nH]1", "note": "[Compound 17, methyl ((S)-1-((2S,5S)-2-(9-(4-bromo-2-((2S,4S)-1-((methoxycarbonyl)-L-isoleucyl)-4-(methoxymethyl)pyrrolidin-2-yl)-1H-imidazol-5-yl)-1,11-dihydroisochromeno[4′,3′:6,7]naphtho[1,2-d]imidazol-2-yl)-5-methylpyrrolidin-1-yl)-3-methyl-1-oxobutan-2-yl)carbamate]", "EC50": 15.6},
      {"molecule": "CC[C@H](C)[C@H](NC(=O)OC)C(=O)N1C[C@@H](COC)C[C@H]1c1nc(C2CC2)c(-c2ccc3c(c2)COc2cc4c(ccc5nc([C@@H]6CC[C@H](C)N6C(=O)[C@@H](NC(=O)OC)C(C)C)[nH]c54)cc2-3)[nH]1", "note": "[Compound 18, methyl ((S)-1-((2S,5S)-2-(9-(4-cyclopropyl-2-((2S,4S)-1-((methoxycarbonyl)-L-isoleucyl)-4-(methoxymethyl)pyrrolidin-2-yl)-1H-imidazol-5-yl)-1,11-dihydroisochromeno[4′,3′:6,7]naphtho[1,2-d]imidazol-2-yl)-5-methylpyrrolidin-1-yl)-3-methyl-1-oxobutan-2-yl)carbamate]", "EC50": 7.7},
      {"molecule": "CC[C@@H](C)[C@H](NC(=O)OC)C(=O)N1C[C@@H](COC)C[C@H]1c1nc(Cl)c(-c2ccc3c(c2)COc2cc4c(ccc5nc([C@@H]6CC[C@H](C)N6C(=O)[C@@H](NC(=O)OC)C(C)C)[nH]c54)cc2-3)[nH]1", "note": "[Compound 19, methyl ((S)-1-((2S,5S)-2-(9-(4-chloro-2-((2S,4S)-1-((methoxycarbonyl)-L-alloisoleucyl)-4-(methoxymethyl)pyrrolidin-2-yl)-1H-imidazol-5-yl)-1,11-dihydroisochromeno[4′,3′:6,7]naphtho[1,2-d]imidazol-2-yl)-5-methylpyrrolidin-1-yl)-3-methyl-1-oxobutan-2-yl)carbamate]", "EC50": 16.4},
      {"molecule": "COC(=O)N[C@H](C(=O)N1[C@@H](C)CC[C@H]1c1nc(Cl)c(-c2ccc3c(c2)COc2cc4c(ccc5nc([C@@H]6CC[C@H](C)N6C(=O)[C@@H](NC(=O)OC)C(C)C)[nH]c54)cc2-3)[nH]1)C(C)C", "note": "[Compound 21, methyl ((S)-1-((2S,5S)-2-(4-chloro-5-(2-((2S,5S)-1-((methoxycarbonyl)-L-valyl)-5-methylpyrrolidin-2-yl)-1,11-dihydroisochromeno[4′,3′:6,7]naphtho[1,2-d]imidazol-9-yl)-1H-imidazol-2-yl)-5-methylpyrrolidin-1-yl)-3-methyl-1-oxobutan-2-yl)carbamate]", "EC50": 18.9},
      {"molecule": "CC[C@H](C)[C@H](NC(=O)OC)C(=O)N1[C@@H](C)CC[C@H]1c1nc(Cl)c(-c2ccc3c(c2)COc2cc4c(ccc5nc([C@@H]6CC[C@H](C)N6C(=O)[C@@H](NC(=O)OC)[C@@H](C)CC)[nH]c54)cc2-3)[nH]1", "note": "[Compound 22, methyl ((2S,3S)-1-((2S,5S)-2-(4-chloro-5-(2-((2S,5S)-1-((methoxycarbonyl)-L-isoleucyl)-5-methylpyrrolidin-2-yl)-1,11-dihydroisochromeno[4′,3′:6,7]naphtho[1,2-d]imidazol-9-yl)-1H-imidazol-2-yl)-5-methylpyrrolidin-1-yl)-3-methyl-1-oxopentan-2-yl)carbamate]", "EC50": 10.8},
      {"molecule": "COC(=O)N[C@H](C(=O)N1[C@@H](C)CC[C@H]1c1nc(Cl)c(-c2ccc3c(c2)COc2cc4c(ccc5nc([C@@H]6CC[C@H](C)N6C(=O)[C@@H](NC(=O)OC)C(C)(C)C)[nH]c54)cc2-3)[nH]1)C(C)(C)C", "note": "[Compound 23, methyl ((S)-1-((2S,5S)-2-(4-chloro-5-(2-((2S,5S)-1-((S)-2-((methoxycarbonyl)amino)-3,3-dimethylbutanoyl)-5-methylpyrrolidin-2-yl)-1,11-dihydroisochromeno[4′,3′:6,7]naphtho[1,2-d]imidazol-9-yl)-1H-imidazol-2-yl)-5-methylpyrrolidin-1-yl)-3,3-dimethyl-1-oxobutan-2-yl)carbamate]", "EC50": 9.4},
      {"molecule": "COC(=O)N[C@H](C(=O)N1[C@@H](C)CC[C@H]1c1nc(Cl)c(-c2ccc3c(c2)COc2cc4c(ccc5nc([C@@H]6CC[C@H](C)N6C(=O)[C@@H](NC(=O)OC)C(C)(C)C(F)(F)F)[nH]c54)cc2-3)[nH]1)C(C)(C)C(F)(F)F", "note": "[Compound 24, methyl ((S)-1-((2S,5S)-2-(4-chloro-5-(2-((2S,5S)-5-methyl-1-((S)-4,4,4-trifluoro-2-((methoxycarbonyl)amino)-3,3-dimethylbutanoyl)pyrrolidin-2-yl)-1,11-dihydroisochromeno[4′,3′:6,7]naphtho[1,2-d]imidazol-9-yl)-1H-imidazol-2-yl)-5-methylpyrrolidin-1-yl)-4,4,4-trifluoro-3,3-dimethyl-1-oxobutan-2-yl)carbamate]", "EC50": 4.2},
      {"molecule": "CC[C@@H](C)[C@H](NC(=O)OC)C(=O)N1[C@@H](C)CC[C@H]1c1nc(Cl)c(-c2ccc3c(c2)COc2cc4c(ccc5nc([C@@H]6CC[C@H](C)N6C(=O)[C@@H](NC(=O)OC)[C@H](C)CC)[nH]c54)cc2-3)[nH]1", "note": "[Compound 25, methyl ((2S,3R)-1-((2S,5S)-2-(4-chloro-5-(2-((2S,5S)-1-((methoxycarbonyl)-L-alloisoleucyl)-5-methylpyrrolidin-2-yl)-1,11-dihydroisochromeno[4′,3′:6,7]naphtho[1,2-d]imidazol-9-yl)-1H-imidazol-2-yl)-5-methylpyrrolidin-1-yl)-3-methyl-1-oxopentan-2-yl)carbamate]", "EC50": 8.3},
      {"molecule": "COC(=O)N[C@H](C(=O)N1CCC[C@H]1c1nc(Cl)c(-c2ccc3c(c2)COc2cc4c(ccc5nc([C@@H]6CCCN6C(=O)[C@@H](NC(=O)OC)C(C)C)[nH]c54)cc2-3)[nH]1)C(C)C", "note": "[Compound 26, methyl ((S)-1-((S)-2-(4-chloro-5-(2-((S)-1-((methoxycarbonyl)-L-valyl)pyrrolidin-2-yl)-1,11-dihydroisochromeno[4′,3′:6,7]naphtho[1,2-d]imidazol-9-yl)-1H-imidazol-2-yl)pyrrolidin-1-yl)-3-methyl-1-oxobutan-2-yl)carbamate]", "EC50": 85.4},
      {"molecule": "CC[C@H](C)[C@H](NC(=O)OC)C(=O)N1CCC[C@H]1c1nc(Cl)c(-c2ccc3c(c2)COc2cc4c(ccc5nc([C@@H]6CCCN6C(=O)[C@@H](NC(=O)OC)[C@@H](C)CC)[nH]c54)cc2-3)[nH]1", "note": "[Compound 27, methyl ((2S,3S)-1-((S)-2-(4-chloro-5-(2-((S)-1-((methoxycarbonyl)-L-isoleucyl)pyrrolidin-2-yl)-1,11-dihydroisochromeno[4′,3′:6,7]naphtho[1,2-d]imidazol-9-yl)-1H-imidazol-2-yl)pyrrolidin-1-yl)-3-methyl-1-oxopentan-2-yl)carbamate]", "EC50": 15.3},
      {"molecule": "CC[C@@H](C)[C@H](NC(=O)OC)C(=O)N1CCC[C@H]1c1nc(Cl)c(-c2ccc3c(c2)COc2cc4c(ccc5nc([C@@H]6CCCN6C(=O)[C@@H](NC(=O)OC)[C@H](C)CC)[nH]c54)cc2-3)[nH]1", "note": "[Compound 28, methyl ((2S,3R)-1-((S)-2-(4-chloro-5-(2-((S)-1-((methoxycarbonyl)-L-alloisoleucyl)pyrrolidin-2-yl)-1,11-dihydroisochromeno[4′,3′:6,7]naphtho[1,2-d]imidazol-9-yl)-1H-imidazol-2-yl)pyrrolidin-1-yl)-3-methyl-1-oxopentan-2-yl)carbamate]", "EC50": 31.5},
      {"molecule": "COC(=O)N[C@H](C(=O)N1CCC[C@H]1c1nc(Cl)c(-c2ccc3c(c2)COc2cc4c(ccc5nc([C@@H]6CCCN6C(=O)[C@@H](NC(=O)OC)C(C)(C)C)[nH]c54)cc2-3)[nH]1)C(C)(C)C", "note": "[Compound 30, methyl ((S)-1-((S)-2-(4-chloro-5-(2-((S)-1-((S)-2-((methoxycarbonyl)amino)-3,3-dimethylbutanoyl)pyrrolidin-2-yl)-1,11-dihydroisochromeno[4′,3′:6,7]naphtho[1,2-d]imidazol-9-yl)-1H-imidazol-2-yl)pyrrolidin-1-yl)-3,3-dimethyl-1-oxobutan-2-yl)carbamate]", "EC50": 44.7},
      {"molecule": "COC(=O)N[C@H](C(=O)N1[C@@H](C)CC[C@H]1c1nc(Br)c(-c2ccc3c(c2)COc2cc4c(ccc5nc([C@@H]6CC[C@H](C)N6C(=O)[C@@H](NC(=O)OC)C(C)C)[nH]c54)cc2-3)[nH]1)C(C)C", "note": "[Compound 31, methyl ((S)-1-((2S,5S)-2-(4-bromo-5-(2-((2S,5S)-1-((methoxycarbonyl)-L-valyl)-5-methylpyrrolidin-2-yl)-1,11-dihydroisochromeno[4′,3′:6,7]naphtho[1,2-d]imidazol-9-yl)-1H-imidazol-2-yl)-5-methylpyrrolidin-1-yl)-3-methyl-1-oxobutan-2-yl)carbamate]", "EC50": 8.5}
    ]}
  ]
}
